According to US20150362482A1 (priority 2013, published 2015):

Tests used:
Assay type in all cases: cell-based, mouse
networked ESN cultures = tested on: networked ESN cultures
ESNs = tested on: ESNs
iGluR = tested on: iGluR
GABARA = tested on: GABARA

## Nc1ccncc1N [3,4-DAP, 3,4-diaminopyridine]
Networked ESN cultures
  network behaviour in simultaneous dual intracellular recordings: rapid transition to a synchronized bursting behavior

## NCCCC(=O)O [GABA]
Networked ESN cultures
  effect on spontaneous network activity: silenced spontaneous network activity

## NC1=N[C@H](O)[C@H]2[C@H]3O[C@]4(O)O[C@@H]([C@@H](O)[C@@]2(N1)[C@@H]4O)[C@]3(O)CO [TTX, tetrodotoxin]
ESNs
  excitatory post-synaptic currents: blocked

## N[C@@H](CCC(=O)O)C(=O)O [glutamate]
iGluR
  agonist-induced current: multiphasic inward current

## NCc1cc(=O)[nH]o1 [muscimol]
GABARA
  agonist-induced current: large desensitizing Cl-current
